Results: patent publication US20160138077A1, “MONITORING AND ASSESSING DEACETYLASE ENZYME ACTIVITY” (THE GENERAL HOSPITAL CORPORATION, priority 2013, published 2016)

Experiments:
[1] = target: T1, HDAC1 (Homo sapiens, UniProt Q13547); assay: LCMS characterization of enzymatic deacetylation by HDAC1; type: biochemical; conditions: 5 μM probe, 12 hours at 37° C.
T1 construct: purchased Cayman Chemicals
Protocol: The enzymatic cleavage of HP-1 and HP-2 was analyzed by performing LCMS assays with HeLa nuclear extract (AnaSpec), HeLa whole cell lysate (Santa Cruz Inc.), and the following purified HDAC isoforms: 1, 2, 3, 6 and 8 (HDAC1, 3 and 8 from Cayman Chemicals and HDAC2 and 6 provided by Dr. Stephen Haggarty). Solutions containing (i) vehicle with DMSO in HDAC buffer, (ii) 5 μM probe in HDAC buffer, (iii) 5 μM probe and HDAC enzyme/HeLa nuclear extract/HeLa whole cell lysate in HDAC buffer, or (iv) 5 μM probe and HDAC enzyme/HeLa nuclear extract/HeLa whole cell lysate pre-incubated with 10 μM SAHA (Provided by Dr. Stephen Haggarty) in HDAC buffer were incubated for 12 hours at 37° C. Following incubation, a 20 μL aliquot of supernatant from each sample was analyzed by LCMS. […] For HP-1, the (M+H)^+ ion for the corresponding aldehyde (8, DHP-1) was detected, which formed following reaction of the initial imine deacetylation product with water. […] The peak area for each detected compound was measured to determine the % deacetylation of each probe. All assay samples were analyzed in triplicate. […]
LCMS characterization of HDAC enzymatic action on HP-1 and HP-2. […] Following incubation, an aliquot of supernatant from each sample was analyzed by LCMS. […] The peak area for each detected compound was measured to determine the % deacetylation of each probe (full experimental details in Example 1).

[2] = target: T2, HDAC3 (Homo sapiens, UniProt O15379); assay: LCMS characterization of enzymatic deacetylation by HDAC3, incl. cleavage over time (kobs, T1/2); type: biochemical; conditions: for % HP-1 to DHP-1: 5 μM probe, 12 hours at 37° C.
T2 construct: purchased Cayman Chemicals
T2 sequence (O15379 whole entry): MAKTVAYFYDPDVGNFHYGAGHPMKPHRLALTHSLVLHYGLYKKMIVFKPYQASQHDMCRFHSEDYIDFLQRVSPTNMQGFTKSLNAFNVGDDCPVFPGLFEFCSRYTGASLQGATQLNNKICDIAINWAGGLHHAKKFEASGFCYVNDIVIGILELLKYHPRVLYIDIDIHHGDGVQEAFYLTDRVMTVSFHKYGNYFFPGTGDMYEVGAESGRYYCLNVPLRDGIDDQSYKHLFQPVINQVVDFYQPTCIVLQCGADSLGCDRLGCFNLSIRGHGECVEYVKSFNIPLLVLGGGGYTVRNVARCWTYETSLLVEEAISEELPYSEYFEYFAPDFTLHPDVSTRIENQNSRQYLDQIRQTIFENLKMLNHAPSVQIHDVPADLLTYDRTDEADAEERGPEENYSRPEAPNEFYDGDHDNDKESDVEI
T2 sequence (Q9Y618 395-489 partner limits assumed): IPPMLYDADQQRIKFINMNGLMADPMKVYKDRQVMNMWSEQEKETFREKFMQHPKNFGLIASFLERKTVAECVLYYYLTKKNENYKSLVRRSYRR
Protocol: The enzymatic cleavage of HP-1 and HP-2 was analyzed by performing LCMS assays with HeLa nuclear extract (AnaSpec), HeLa whole cell lysate (Santa Cruz Inc.), and the following purified HDAC isoforms: 1, 2, 3, 6 and 8 (HDAC1, 3 and 8 from Cayman Chemicals and HDAC2 and 6 provided by Dr. Stephen Haggarty). Solutions containing (i) vehicle with DMSO in HDAC buffer, (ii) 5 μM probe in HDAC buffer, (iii) 5 μM probe and HDAC enzyme/HeLa nuclear extract/HeLa whole cell lysate in HDAC buffer, or (iv) 5 μM probe and HDAC enzyme/HeLa nuclear extract/HeLa whole cell lysate pre-incubated with 10 μM SAHA (Provided by Dr. Stephen Haggarty) in HDAC buffer were incubated for 12 hours at 37° C. Following incubation, a 20 μL aliquot of supernatant from each sample was analyzed by LCMS. Deacetylation of HP-1 and 2 was confirmed by detection of the (M+H)^+.ion following positive electrospray ionization. For HP-1, the (M+H)^+ ion for the corresponding aldehyde (8, DHP-1) was detected, which formed following reaction of the initial imine deacetylation product with water. For HP-2, the […]. ion for the corresponding amine (6, DHP-2) was identified. The peak area for each detected compound was measured to determine the % deacetylation of each probe. All assay samples were analyzed in triplicate. […]
The rate of cleavage of HP-1 by purified HDAC3 was analyzed by performing a LCMS assay. […] Following incubation, a 20 μL aliquot of supernatant from each sample was analyzed by LCMS at t=0, 1, 2, 4, 8, and 12 hours. […] For HP-1, the (M+H)^+ ion for the corresponding aldehyde (8, DHP-1) was detected, which formed following reaction of the initial imine deacetylation product with water. The peak area for each detected compound was measured to determine the % deacetylation of each probe. The observed rate constant was determined using Graphpad by plotting Ln(DHP-1 peak area) versus time. […] All assay samples were analyzed in triplicate. […]
LCMS characterization of HDAC enzymatic action on HP-1 and HP-2. […] Following incubation, an aliquot of supernatant from each sample was analyzed by LCMS. […]

T1 sequence (Q13547 whole entry): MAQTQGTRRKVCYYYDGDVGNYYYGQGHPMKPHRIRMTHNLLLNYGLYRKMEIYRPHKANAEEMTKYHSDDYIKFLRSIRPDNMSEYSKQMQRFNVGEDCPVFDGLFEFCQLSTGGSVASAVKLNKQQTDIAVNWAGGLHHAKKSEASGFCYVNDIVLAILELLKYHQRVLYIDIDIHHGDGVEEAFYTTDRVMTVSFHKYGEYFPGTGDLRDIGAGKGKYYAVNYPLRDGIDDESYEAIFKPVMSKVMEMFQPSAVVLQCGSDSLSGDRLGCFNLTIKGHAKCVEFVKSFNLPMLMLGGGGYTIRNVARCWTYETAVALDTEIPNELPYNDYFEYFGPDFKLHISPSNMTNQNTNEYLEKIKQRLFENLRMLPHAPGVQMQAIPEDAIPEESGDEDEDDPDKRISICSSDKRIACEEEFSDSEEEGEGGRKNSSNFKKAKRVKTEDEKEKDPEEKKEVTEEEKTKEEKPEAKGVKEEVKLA

CC(=O)NC=CCCCCNC(=O)CCCCCNc1ccc([N+](=O)[O-])c2nonc12 [HP-1]
% HP-1 to DHP-1 ([1]; HDAC1, +SAHA (10 μM pre-incubated)): 0% | % HP-1 to DHP-1 ([1]; HDAC1, −SAHA, maximum detected conversion, 1.5:1 trans:cis mixture): 15% | kobs with HDAC3 (conversion of HP-1 to DHP-1) ([2]; 5 μM HP-1, HDAC3, 37° C., t=0-12 hours, Ln(DHP-1 peak area) versus time): 3.2e-05 ± 6e-06 s⁻¹ | % HP-1 to DHP-1 ([2]; HDAC3, +SAHA (10 μM)): 0% | % HP-1 to DHP-1 ([2]; HDAC3, −SAHA, maximum detected conversion): 93%
